Measurements from US10898481B2 (priority 2018, dated 2021).
Where two headings read alike, the source gives them in different places.

Tests used:
hA1 = hA1 (Homo sapiens (Human), UniProt P30542); settings: hA1 membrane, [3H]-DPCPX; read-out: Binding Affinity (IC50 nM) hA1
Description: (§1) The empty boxes in the tables below indicate data not collected yet.

hA2a = hA2a (Homo sapiens (Human), UniProt P29274); test: Radioligand binding to hA2a membrane with [3H]-CGS21680; settings: read-out: Binding Affinity (IC50 nM) hA2a
Description: as §1

hA2b = hA2b (Homo sapiens (Human), UniProt P29275); test: Radioligand binding to hA2b membrane with [3H]-DPCPX; settings: read-out: Binding Affinity (IC50 nM) hA2b
Description: as §1

[1] = biological target: hADORA1/CHO (hA1 expressing) cells (Homo sapiens (Human), UniProt P30542); test: cell-based; settings: 10 μM adenosine
hA2a/CHO = hA2a/CHO (Homo sapiens (Human), UniProt P29274); test: cAMP inhibition assay in hA2a/CHO cells, 10 μM adenosine; format: cell-based; settings: read-out: cAMP & FLIPR IC50 (nM) hA2a;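 also: compounds added to cells 30 min ahead of adenosine, then a further 30 min at 37 °C with adenosine before cAMP detection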
hA2b/CHO = hA2b/CHO (Homo sapiens (Human), UniProt P29275); test: cAMP inhibition assay in hA2b/CHO cells, 10 μM adenosine; format: cell-based; settings: read-out: cAMP & FLIPR IC50 (nM) hA2b;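 also: cells exposed to compound 30 min at 37 °C, then stimulated with adenosine a further 30 min, cAMP read after 60 min at room temperature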
hA3/CHO = hA3/CHO (Homo sapiens (Human), UniProt P0DMS8); test: cell-based
Protocol: hA2a/CHO, hA2b/CHO, hA3/CHO and mA2a/CHO (Genscript) were plated at 5×10^3 cells/well into 384-well polystyrene plates at the day of experiment. Compounds were pre-incubated with cells for 30 min at 37° C., 5% CO2. Then 10 μM adenosine was added to the cells and incubated for 30 min at 37° C., 5% CO2. Detection reagent (CISBIO) was added and the plates were incubated for 60 min at room temperature. The signal was captured by Envision.

mA2a/CHO = mA2a/CHO (Mus musculus (Mouse), UniProt Q60613); test: cAMP inhibition assay in mA2a/CHO cells, 10 μM adenosine; format: cell-based; settings: read-out: cAMP & FLIPR IC50 (nM) mA2a;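 also: compounds preincubated 30 min at 37 °C before the adenosine challenge, then 30 min further stimulation, readout after 60 min detection reagent incubation at room temperature in 384-well plates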
[2] = FLIPR inhibition, read-out: cAMP & FLIPR IC50 (nM) hA1
[3] = cAMP & FLIPR IC50 (nM) hA1, FLIPR inhibition

Chain of hA2b/CHO (P29275 whole entry): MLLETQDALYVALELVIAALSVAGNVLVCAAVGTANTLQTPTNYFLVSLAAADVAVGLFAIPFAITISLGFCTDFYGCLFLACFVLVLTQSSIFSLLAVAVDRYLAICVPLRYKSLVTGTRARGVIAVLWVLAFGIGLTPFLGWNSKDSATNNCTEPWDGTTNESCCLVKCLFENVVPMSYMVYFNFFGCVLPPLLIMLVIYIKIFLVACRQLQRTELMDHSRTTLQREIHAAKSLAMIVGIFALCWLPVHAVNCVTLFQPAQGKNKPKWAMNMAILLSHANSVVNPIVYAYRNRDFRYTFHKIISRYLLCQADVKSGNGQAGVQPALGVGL
Chain of hA2a (P29274 whole entry): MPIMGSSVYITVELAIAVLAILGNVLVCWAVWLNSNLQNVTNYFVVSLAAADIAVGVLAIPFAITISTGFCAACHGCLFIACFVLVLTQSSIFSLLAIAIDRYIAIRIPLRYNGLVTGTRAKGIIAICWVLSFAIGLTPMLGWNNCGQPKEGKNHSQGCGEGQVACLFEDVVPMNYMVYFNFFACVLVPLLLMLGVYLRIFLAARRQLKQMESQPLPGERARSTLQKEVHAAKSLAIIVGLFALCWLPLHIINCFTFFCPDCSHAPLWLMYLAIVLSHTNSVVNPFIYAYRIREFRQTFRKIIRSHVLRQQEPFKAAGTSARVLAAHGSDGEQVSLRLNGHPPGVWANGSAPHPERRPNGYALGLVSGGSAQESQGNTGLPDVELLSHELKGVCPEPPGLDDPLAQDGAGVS
Chain of hA2a/CHO (P29274 whole entry): as above
Chain of mA2a/CHO (Q60613 whole entry): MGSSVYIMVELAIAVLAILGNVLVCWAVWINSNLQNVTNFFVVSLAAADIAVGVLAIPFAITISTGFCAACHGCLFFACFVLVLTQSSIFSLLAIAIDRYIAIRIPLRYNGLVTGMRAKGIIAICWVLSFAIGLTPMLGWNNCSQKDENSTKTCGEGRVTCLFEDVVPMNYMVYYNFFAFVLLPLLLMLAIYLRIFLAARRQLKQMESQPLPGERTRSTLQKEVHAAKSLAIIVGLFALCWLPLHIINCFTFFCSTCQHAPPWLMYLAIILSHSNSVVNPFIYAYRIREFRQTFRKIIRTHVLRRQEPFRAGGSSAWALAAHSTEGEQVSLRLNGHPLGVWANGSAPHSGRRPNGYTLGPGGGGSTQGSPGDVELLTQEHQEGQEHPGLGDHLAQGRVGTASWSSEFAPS
Chain of hADORA1/CHO (hA1 expressing) cells (P30542 whole entry): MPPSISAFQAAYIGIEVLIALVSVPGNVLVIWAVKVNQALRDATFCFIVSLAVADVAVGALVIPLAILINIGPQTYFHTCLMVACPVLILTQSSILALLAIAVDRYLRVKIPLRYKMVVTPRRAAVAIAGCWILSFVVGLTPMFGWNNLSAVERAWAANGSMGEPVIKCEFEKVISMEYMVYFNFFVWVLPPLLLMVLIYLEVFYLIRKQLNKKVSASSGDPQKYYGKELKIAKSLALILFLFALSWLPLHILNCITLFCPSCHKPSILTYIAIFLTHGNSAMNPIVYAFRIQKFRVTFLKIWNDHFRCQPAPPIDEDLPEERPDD
Chain of hA1 (P30542 whole entry): as above
Chain of hA2b (P29275 whole entry): as the sequence (P29275 whole entry) above
Chain of hA3/CHO (P0DMS8 whole entry): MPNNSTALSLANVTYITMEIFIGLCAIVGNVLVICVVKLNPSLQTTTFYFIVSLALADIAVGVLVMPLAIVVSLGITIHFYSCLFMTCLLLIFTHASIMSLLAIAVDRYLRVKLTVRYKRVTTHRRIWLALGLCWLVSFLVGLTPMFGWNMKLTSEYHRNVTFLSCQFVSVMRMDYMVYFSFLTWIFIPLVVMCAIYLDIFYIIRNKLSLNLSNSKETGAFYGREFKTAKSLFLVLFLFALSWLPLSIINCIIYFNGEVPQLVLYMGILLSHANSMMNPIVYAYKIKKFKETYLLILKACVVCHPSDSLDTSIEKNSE

SMILES	IC50 (hA1) [nM]	IC50 (hA2a) [nM]	IC50 (hA2b) [nM]	IC50 [1, 2] [nM]	IC50 (hA2a/CHO) [nM]	IC50 (hA2b/CHO) [nM]	IC50 (hA3/CHO) [nM]	IC50 (mA2a/CHO) [nM]	IC50 [1, 3] [nM]
Cn1cc(-c2nc(C(=O)NCc3c(F)cccc3F)c(N)nc2-c2ncco2)ccc1=O [Example 3, 3-amino-N-(2,6-difluorobenzyl)-6-(1-methyl-6-oxo-1,6-dihydropyridin-3-yl)-5-(oxazol-2-yl)pyrazine-2-carboxamide]	16	1.9	1.4	159	4.5	53	≥ 10000	5.8	–
CN(C)c1cccnc1CNC(=O)c1nc(-c2ccc(=O)n(C)c2)c(-c2ncco2)nc1N [Example 16, 3-amino-N-((3-(dimethylamino)pyridin-2-yl)methyl)-6-(1-methyl-6-oxo-1,6-dihydropyridin-3-yl)-5-(oxazol-2-yl)pyrazine-2-carboxamide]	15	3.9	–	32	5.3	336	–	8.3	–
CNc1cccc(CNC(=O)c2nc(-c3ccc(=O)n(C)c3)c(-c3ncco3)nc2N)n1 [Example 23, 3-amino-6-(1-methyl-6-oxo-1,6-dihydropyridin-3-yl)-N-[[6-(methylamino)pyridin-2-yl]methyl]-5-(1,3-oxazol-2-yl)pyrazine-2-carboxamide]	–	3.5	2.9	281	25	880	≥ 10000	64	–
Nc1nc(-c2ncco2)c(-c2ccc3nccn3c2)nc1C(=O)NCc1ncccc1F [Example 43, 3-amino-N-((3-fluoropyridin-2-yl)methyl)-6-(imidazo[1,2-a]pyridin-6-yl)-5-(oxazol-2-yl)pyrazine-2-carboxamide]	245	21	–	–	49	159	–	240	10000
Nc1nc(-c2ncco2)c(-c2ccc3[nH]cnc3c2)nc1C(=O)NCc1ncccc1F [Example 47, 3-amino-6-(1H-1,3-benzodiazol-5-yl)-N-[(3-fluoropyridin-2-yl)methyl]-5-(1,3-oxazol-2-yl)pyrazine-2-carboxamide]	696	–	–	–	–	–	–	–	10000
Nc1cccc(CNC(=O)c2nc(-c3ccc4nccn4c3)c(-c3ncco3)nc2N)n1 [Example 48, 3-amino-N-[(6-aminopyridin-2-yl)methyl]-6-[imidazo[1,2-a]pyridin-6-yl]-5-(1,3-oxazol-2-yl) pyrazine-2-carboxamide]	67	3.1	–	7160	19	84	–	256	–
Cn1cc(-c2nc(C(=O)NCc3nc(N)ccc3F)c(N)nc2-c2ncco2)ccc1=O [Example 49, 3-amino-N-((6-amino-3-fluoropyridin-2-yl)methyl)-6-(1-methyl-6-oxo-1,6-dihydropyridin-3-yl)-5-(oxazol-2-yl)pyrazine-2-carboxamide]	117	–	–	–	–	–	–	–	1710
Cn1cnc2ccc(-c3nc(C(=O)NCc4ncccc4F)c(N)nc3-c3ncco3)cc21 [Example 51, 3-amino-N-((3-fluoropyridin-2-yl)methyl)-6-(3-methyl-3H-benzo[d]imidazol-5-yl)-5-(oxazol-2-yl)pyrazine-2-carboxamide]	78	2.1	–	2500	1.2	5.5	–	9.6	–
COc1ccccc1CNC(=O)c1nc(-c2cc(C)nc(C)c2)c(-c2ccc(C)o2)nc1N [Example 61, 3-amino-6-(2,6-dimethylpyridin-4-yl)-N-(2-methoxybenzyl)-5-(5-methylfuran-2-yl)pyrazine-2-carboxamide]	52	7.9	–	–	0.6	≥ 10000	–	6	–
Cn1cc(-c2nc(C(=O)NC(CO)c3c(F)cccc3F)c(N)nc2-c2ncco2)ccc1=O (centres unmarked) [Example 98, 3-amino-N-(1-(2,6-difluorophenyl)-2-hydroxyethyl)-6-(1-methyl-6-oxo-1,6-dihydropyridin-3-yl)-5-(oxazol-2-yl) pyrazine-2-carboxamide]	10	9.3	–	–	21	126	–	64	70
Nc1nc(-c2ncco2)c(-c2ccc3ncnn3c2)nc1C(=O)NCc1ncccc1F [Example 100, 6-([1,2,4]triazolo[1,5-a]pyridin-6-yl)-3-amino-N-((3-fluoropyridin-2-yl)methyl)-5-(oxazol-2-yl)pyrazine-2-carboxamide]	685	8.4	–	–	76	312	–	4530	10000
Cc1cnc2ccc(-c3nc(C(=O)NCc4ncccc4F)c(N)nc3-c3ncco3)cn12 [Example 101, 3-amino-N-((3-fluoropyridin-2-yl)methyl)-6-(3-methylimidazo[1,2-a]pyridin-6-yl)-5-(oxazol-2-yl)pyrazine-2-carboxamide]	5.6	–	–	45	–	–	–	–	–
Cc1cnc2ccc(-c3nc(C(=O)NC[C@H]4CCCO4)c(N)nc3-c3ncco3)cn12 [Example 126, (R)-3-amino-6-(3-methylimidazo[1,2-a]pyridin-6-yl)-5-(oxazol-2-yl)-N-((tetrahydrofuran-2-yl)methyl)pyrazine-2-carboxamide]	78	1.4	–	–	1.6	77	–	7	1230
Cc1cnc2ccc(-c3nc(C(=O)NC[C@@H]4CCCO4)c(N)nc3-c3ncco3)cn12 [Example 127, (S)-3-amino-6-(3-methylimidazo[1,2-a]pyridin-6-yl)-5-(oxazol-2-yl)-N-((tetrahydrofuran-2-yl)methyl)pyrazine-2-carboxamide]	68	3.1	–	–	1.7	99	–	14	2420
Cc1cnc2ccc(-c3nc(C(=O)NC(C)C)c(N)nc3-c3ncco3)cn12 [Example 133, 3-amino-N-isopropyl-6-(3-methyl-imidazo[1,2-a]pyridin-6-yl)-5-(oxazol-2-yl)pyrazine-2-carboxamide]	271	2.7	–	–	5.9	554	–	19	10000
Cc1cnc2ccc(-c3nc(C(=O)NC[C@H]4CCOC4)c(N)nc3-c3ncco3)cn12 [Example 136, (R)-3-amino-6-(3-methylimidazo[1,2-a]pyridin-6-yl)-5-(oxazol-2-yl)-N-((tetrahydrofuran-3-yl)methyl)pyrazine-2-carboxamide]	182	1.7	–	–	1.8	512	–	27	10000
Cc1cnc2ccc(-c3nc(C(=O)NC[C@@H]4CCOC4)c(N)nc3-c3ncco3)cn12 [Example 137, (S)-3-amino-6-(3-methylimidazo[1,2-a]pyridin-6-yl)-5-(oxazol-2-yl)-N-((tetrahydrofuran-3-yl)methyl)pyrazine-2-carboxamide]	195	3.9	–	–	1.7	464	–	34	10000
COCCNC(=O)c1nc(-c2ccc3ncc(C)n3c2)c(-c2ncco2)nc1N [Example 147, 3-amino-N-(2-methoxyethyl)-6-(3-methylimidazo[1,2-a]pyridin-6-yl)-5-(oxazol-2-yl)pyrazine-2-carboxamide]	108	5.6	–	2380	3.8	134	–	15	–
COC[C@H](C)NC(=O)c1nc(-c2ccc3ncc(C)n3c2)c(-c2ncco2)nc1N [Example 160, (S)-3-amino-N-(1-methoxypropan-2-yl)-6-(3-methylimidazo[1,2-a]pyridin-6-yl)-5-(oxazol-2-yl)pyrazine-2-carboxamide]	333	3.15	–	4860	0.26	163	–	0.89	–
Cc1cnc2ccc(-c3nc(C(=O)NC4CCC4)c(N)nc3-c3ncco3)cn12 [Example 218, 3-amino-N-cyclobutyl-6-(3-methylimidazo[1,2-a]pyridin-6-yl)-5-(oxazol-2-yl)pyrazine-2-carboxamide]	475	9.1	–	> 10000	1.5	359	–	28	–
